Source: PMC9330922, “Genomewide Analysis and Biological Characterization of Cathelicidins with Potent Antimicrobial Activity and Low Cytotoxicity from Three Bat Species” (Antibiotics, 2022)
Structures can show the parent of a compound that is named as a salt. Where two headings read alike, the source gives them in different places. No end group written: not given here.

Experiments:
[1] = test system: Klebsiella pneumoniae subsp. pneumoniae KCTC 1726; assay: microbe, parasite or virus in culture; format: cell-based; settings: MHB; for MIC: Klebsiella pneumoniae, KCTC1726, read-out: Minimum Inhibitory Concentration
Procedure: (§1) The antibacterial activities of the chemically synthesized peptides were evaluated against a panel of bacteria consisting of 6 Gram-negative strains, including E. coli ATCC 25922 (American Type Culture Collection, Manassas, VA, USA), P. aeruginosa ATCC 27853, S. Typhimurium ATCC 14028, A. baumannii KCTC (Korean Collection for Type Cultures, Jeongeup, Korea) 23254, K. pneumoniae KCTC 1726, and E. cloacae ATCC 13047, and 6 Gram-positive strains, including S. aureus ATCC 6538, B. cereus ATCC 10876, E. faecalis ATCC 29212, S. agalactiae ATCC 27956, S. dysgalactiae ATCC 27957, and S. equi ATCC 43079. Ampicillin (Sigma-Aldrich, St. Louis, MO, USA), chloramphenicol (Sigma-Aldrich), and gentamicin sulfate (Sigma-Aldrich) were used as controls for antibacterial activity. The MIC was determined by a colorimetric method using the Microbial Viability Assay Kit-WST (Dojindo, Kumamoto, Japan) according to the manufacturer’s manual and the Clinical and Laboratory Standards Institute (CLSI) guidelines (2018). Four colonies of each bacterium were inoculated into 5 mL of Luria-Bertani (LB) broth medium (BD Bioscience, Franklin Lakes, NJ, USA) or brain heart infusion broth (BHIB; BD Bioscience) at 37 °C for 6 h with shaking at 220 rpm. E. faecalis and streptococci were cultured in BHIB because of their slow growth, whereas all other bacteria were cultured in LB medium. The cells were washed by sterile saline (0.9% NaCl) twice and adjusted in a single well of a 96-well plate at a cell density of 1.5 × 10^5 CFU/well in accordance with 0.5 McFarland standard. Subsequently, 180 µL/well of fresh Mueller-Hinton broth (MHB; BD Bioscience), except for E. faecalis and streptococci using BHIB was added to the plate using BHIB. Final concentrations of 1–40 µg/mL (0.3–19.3 μM) of each peptide and reference antibiotic were added to each well. The plates were then incubated at 37 °C for 6 h. Subsequently, 10 µL of the coloring reagent was added, and the mixture was incubated at 37 °C for 2 h. The absorbance of each well was measured at 450 nm using a microplate spectrophotometer (Bio-Rad, xMark spectrophotometer, Hercules, CA, USA). MIC values were determined when the difference in the absorbance values between treatments and blanks (media and coloring reagent only) was less than 0.05. Experiments were performed in triplicate.

[2] = test system: Bacillus cereus ATCC 10876; assay: microbe, parasite or virus in culture; format: cell-based; settings: MHB; for MIC: Bacillus cereus, ATCC10876, value in brackets, WST colorimetric, 37 °C 6 h + 2 h, triplicate, read-out: Minimum Inhibitory Concentration; for Minimum Inhibitory Concentration: Microbial Viability Assay Kit-WST, 1.5 × 10^5 CFU/well, 37 °C 6 h + 2 h coloring reagent, A450, triplicate
Procedure: as §1

[3] = test system: Staphylococcus aureus ATCC 6538; assay: microbe, parasite or virus in culture; format: cell-based; settings: MHB; for Minimum Inhibitory Concentration: Microbial Viability Assay Kit-WST, 1.5 × 10^5 CFU/well, 37 °C 6 h + 2 h coloring reagent, A450, triplicate; for MIC: Staphylococcus aureus, ATCC6538, value in brackets, WST colorimetric, 37 °C 6 h + 2 h, triplicate, read-out: Minimum Inhibitory Concentration
Procedure: as §1

[4] = test system: Streptococcus agalactiae ATCC 27956; assay: microbe, parasite or virus in culture; format: cell-based; settings: BHIB; for Minimum Inhibitory Concentration: Microbial Viability Assay Kit-WST, 1.5 × 10^5 CFU/well, 37 °C 6 h + 2 h coloring reagent, A450, triplicate; for MIC: Streptococcus agalactiae, ATCC27956, value in brackets, WST colorimetric, 37 °C 6 h + 2 h, triplicate, read-out: Minimum Inhibitory Concentration
Procedure: as §1

[5] = test system: Streptococcus equi subsp. zooepidemicus ATCC 43079; assay: microbe, parasite or virus in culture; format: cell-based; settings: BHIB; for Minimum Inhibitory Concentration: Microbial Viability Assay Kit-WST, 1.5 × 10^5 CFU/well, 37 °C 6 h + 2 h coloring reagent, A450, triplicate; for MIC: Streptococcus equi, ATCC43079, value in brackets, WST colorimetric, 37 °C 6 h + 2 h, triplicate, read-out: Minimum Inhibitory Concentration
Procedure: as §1

[6] = test system: Escherichia coli ATCC 25922; assay: microbe, parasite or virus in culture; format: cell-based; settings: MHB; for MIC: Escherichia coli, ATCC25922, 8 h, value in brackets, WST colorimetric, 37 °C 6 h + 2 h, triplicate, read-out: Minimum Inhibitory Concentration; for Minimum Inhibitory Concentration: Microbial Viability Assay Kit-WST, 1.5 × 10^5 CFU/well, 37 °C 6 h + 2 h coloring reagent, A450, triplicate
Procedure: as §1

[7] = test system: Enterococcus faecalis ATCC 29212; assay: microbe, parasite or virus in culture; format: cell-based; settings: BHIB; for MIC: Enterococcus faecalis, ATCC29212, value in brackets, WST colorimetric, 37 °C 6 h + 2 h, triplicate, read-out: Minimum Inhibitory Concentration; for Minimum Inhibitory Concentration: Microbial Viability Assay Kit-WST, 1.5 × 10^5 CFU/well, 37 °C 6 h + 2 h coloring reagent, A450, triplicate
Procedure: as §1

[8] = test system: Salmonella enterica serovar Typhimurium ATCC 14028; assay: microbe, parasite or virus in culture; format: cell-based; settings: MHB; for Minimum Inhibitory Concentration: Microbial Viability Assay Kit-WST, 1.5 × 10^5 CFU/well, 37 °C 6 h + 2 h coloring reagent, A450, triplicate; for MIC: Salmonella enterica, value in brackets, WST colorimetric, 37 °C 6 h + 2 h, triplicate, read-out: Minimum Inhibitory Concentration
Procedure: as §1

[9] = test system: Enterobacter cloacae subsp. cloacae ATCC 13047; assay: microbe, parasite or virus in culture; format: cell-based; settings: MHB; for MIC: Enterobacter cloacae, ATCC13047, value in brackets, WST colorimetric, 37 °C 6 h + 2 h, triplicate, read-out: Minimum Inhibitory Concentration; for Minimum Inhibitory Concentration: Microbial Viability Assay Kit-WST, 1.5 × 10^5 CFU/well, 37 °C 6 h + 2 h coloring reagent, A450, triplicate
Procedure: as §1

[10] = test system: Pseudomonas aeruginosa ATCC 27853; assay: microbe, parasite or virus in culture; format: cell-based; settings: MHB; for Minimum Inhibitory Concentration: Microbial Viability Assay Kit-WST, 1.5 × 10^5 CFU/well, 37 °C 6 h + 2 h coloring reagent, A450, triplicate; for MIC: Pseudomonas aeruginosa, ATCC27853, value in brackets, WST colorimetric, 37 °C 6 h + 2 h, triplicate, read-out: Minimum Inhibitory Concentration
Procedure: as §1

[11] = test system: Acinetobacter baumannii KCTC 23254; assay: microbe, parasite or virus in culture; format: cell-based; settings: MHB; for MIC: Acinetobacter baumannii, KCTC23254, value in brackets, WST colorimetric, 37 °C 6 h + 2 h, triplicate, read-out: Minimum Inhibitory Concentration; for Minimum Inhibitory Concentration: Microbial Viability Assay Kit-WST, 1.5 × 10^5 CFU/well, 37 °C 6 h + 2 h coloring reagent, A450, triplicate
Procedure: as §1

[12] = test system: Streptococcus dysgalactiae ATCC 27957; assay: microbe, parasite or virus in culture; format: cell-based; settings: BHIB; for Minimum Inhibitory Concentration: Microbial Viability Assay Kit-WST, 1.5 × 10^5 CFU/well, 37 °C 6 h + 2 h coloring reagent, A450, triplicate; for MIC: Streptococcus dysgalactiae, ATCC27957, value in brackets, WST colorimetric, 37 °C 6 h + 2 h, triplicate, read-out: Minimum Inhibitory Concentration
Procedure: as §1

[13] = test system: panel of 12 reference bacteria, comprised of 6 Gram-negative strains and 6 Gram-positive strains; format: cell-based; settings: 6 h
Procedure: as §1

HaCaT cells = assay: In vitro cytotoxicity assay, WST-1 cell viability; format: cell-based, Human
Procedure: HaCaT cells were cultured in Dulbecco’s modified Eagle’s medium (DMEM; Hyclone^TM, Logan, UT, USA) with 10% fetal bovine serum (FBS; Hyclone^TM) and 1% penicillin/streptomycin (Pen-Strep; Hyclone^TM) up to 80% confluence at 37 ℃ and 5% CO2. Cells were detached from the plate by adding 0.25% trypsin-EDTA solution (Gibco^TM; Carlsbad, CA, USA). In a 96-well plate, 2 × 10^4 cells were seeded per well and cultured for 24 h. Subsequently, the medium was replaced with 100 μL DMEM (Hyclone^TM) containing 10% heat-inactivated FBS. Peptides were added to each well at concentrations of 64 μg/mL and 160 μg/mL. As references for complete cell lysis, 64 μg/mL melittin (Sigma-Aldrich) and Triton X-100 (Sigma-Aldrich) were used. Untreated cells were used as negative controls. After 24 h incubation at 37 ℃ and 5 % CO2, 10 μL of coloring solution (Cell Proliferation Reagent WST-1^TM; Sigma Aldrich) was added to each well according to the manufacturer’s instructions. The absorbance at 450 nm (treated group and control) and 650 nm (background) was measured in each well using a microplate reader (xMarkTM spectrophotometer; Bio-Rad). The cell viability was calculated using the following equation. All experiments were performed in triplicate. Cell viability (%) = 100 × (OD (treated group) − OD(Background))/(OD (negative control) − OD (Background))(2)

[14] = value in brackets, WST colorimetric, 37 °C 6 h + 2 h, triplicate
[15] = Microbial Viability Assay Kit-WST, 1.5 × 10^5 CFU/well, 37 °C 6 h + 2 h coloring reagent, A450, triplicate

Compound | MIC [1, 14] [µM] | MIC [2] [µM] | Minimum Inhibitory Concentration [2] [µg/mL] | Minimum Inhibitory Concentration [3] [µg/mL] | MIC [3] [µM] | Minimum Inhibitory Concentration [4] [µg/mL] | MIC [4] [µM] | Minimum Inhibitory Concentration [5] [µg/mL] | MIC [5] [µM] | MIC [6] [µM] | Minimum Inhibitory Concentration [6] [µg/mL] | MIC [7] [µM] | Minimum Inhibitory Concentration [7] [µg/mL] | Minimum Inhibitory Concentration [8] [µg/mL] | MIC [8] [µM] | MIC [9] [µM] | Minimum Inhibitory Concentration [9] [µg/mL] | Minimum Inhibitory Concentration [10] [µg/mL] | MIC [10] [µM] | MIC [11] [µM] | also measured
CC1(C)S[C@@H]2[C@H](NC(=O)[C@H](N)c3ccccc3)C(=O)N2[C@H]1C(=O)O [Ampicillin] | > 229 | 229 | 80 | 2 | 5.7 | 4 | 11.4 | 2 | 5.7 | 14.3 | 5 | 28.6 | 10 | > 80 | > 229 | > 229 | > 80 | > 640 | > 1830 | > 229 | Minimum Inhibitory Concentration [1, 15]: > 80 µg/mL; Minimum Inhibitory Concentration [11]: > 80 µg/mL; Minimum Inhibitory Concentration [12]: 2 µg/mL; MIC [12]: 5.7 µM
CNC(C)C1CCC(N)C(OC2C(N)CC(N)C(OC3OCC(C)(O)C(NC)C3O)C2O)O1 (stereo not drawn) [Gentamicin, gentamicin sulfate] | 39.8 | 2.1 | 1 | 1 | 2.1 | 75 | 158 | 45 | 94.5 | 2.1 | 1 | 189 | 90 | 1 | 2.1 | 2.1 | 1 | 1 | 2.1 | 21 | MIC [1, 15]: 19 µg/mL; Minimum Inhibitory Concentration [11]: 10 µg/mL; Minimum Inhibitory Concentration [12]: 15 µg/mL; MIC [12]: 31.5 µM
O=C(N[C@H](CO)[C@H](O)c1ccc([N+](=O)[O-])cc1)C(Cl)Cl [chloramphenicol] | > 248 | 31 | 10 | 7.5 | 23.2 | 5 | 15.5 | 5 | 15.5 | 9.3 | 3 | 31 | 10 | 5 | 15.5 | 15.5 | 5 | 80 | 248 | 118 | Minimum Inhibitory Concentration [1, 15]: > 80 µg/mL; Minimum Inhibitory Concentration [11]: 38 µg/mL; Minimum Inhibitory Concentration [12]: 4 µg/mL; MIC [12]: 12.4 µM
GIFILKHRRPIGRGIEIT [ΔML-CATH] | – | – | – | – | – | – | – | – | – | – | – | – | – | – | – | – | – | – | – | – | MIC (no observable antibacterial activity) [13]: > 13.7 µM
IAGRIAGKLIGDAINRHRERNRQRR [ΔPD-CATH] | – | – | – | – | – | – | – | – | – | – | – | – | – | – | – | – | – | – | – | – | MIC (no observable antibacterial activity) [13]: > 13.7 µM
ILGPALRIGGRIAGRIAGKLIGDAINRHRERNRQRRG [PD-CATH] | – | – | – | – | – | – | – | – | – | – | – | – | – | – | – | – | – | – | – | – | MIC, range over strains [13]: 0.7 to 7.3 µM; concentration at which the viability of human keratinocyte was affected (HaCaT cells): 160 µg/mL
ILGRLRDLLRRGGRKIGQGLERIGQRIQGFFSNREPMEES [HA-CATH] | – | – | – | – | – | – | – | – | – | – | – | – | – | – | – | – | – | – | – | – | MIC, range over strains [13]: 1.1 to 7.3 µM
LLRRGGRKIGQGLERIGQRIQGF [ΔHA-CATH] | – | – | – | – | – | – | – | – | – | – | – | – | – | – | – | – | – | – | – | – | MIC (no observable antibacterial activity) [13]: > 13.7 µM
LNPLIKAGIFILKHRRPIGRGIEITGRGIKKFFSK [ML-CATH] | – | – | – | – | – | – | – | – | – | – | – | – | – | – | – | – | – | – | – | – | MIC, range over strains [13]: 0.3 to 8.8 µM; MICs, range [13]: 0.5 to 0.8 µM
Triton X-100 | – | – | – | – | – | – | – | – | – | – | – | – | – | – | – | – | – | – | – | – | Cell Viability ± SD (HaCaT cells): 8.9 ± 0.05 %
